In patent US20250195511A1, “INDAZOLE DERIVATIVES USEFUL AS INHIBITORS OF NOD-LIKE RECEPTOR PROTEIN 3” (Merck Sharp & Dohme LLC, priority 2023, published 2025):

Tested on: NLRP3 inflammasome
Experiment: NLRP3 inflammasome activation: ASC-SPECK formation in gramicidin-stimulated THP-1 cells
Format: cell-based
Conditions: PMA-treated human monocytic THP-1 cells, compound 1 h before 12.5 μg/ml gramicidin, 3-hour treatment
Description: Activation of the canonical NLRP3 inflammasome requires two steps, priming and activation. A priming signal such as a pathogen activated molecular patterns (PAMPs) or danger-activated molecular patterns (DAMPs) are recognized by Toll-like receptors leads to nuclear factor kappa B (NF-KB)-mediated signaling. […] The second step is activation which induces oligomerization of NLRP3 and subsequent assembly of NLRP3, apoptosis-associated speck-like protein containing a CARD (ASC), and procaspase-1 into an inflammasome complex. This triggers the transformation of procaspase-1 to caspase-1, and the production and secretion of mature IL-1β and IL-18 (Kim et al., J. Inflamm. 2015, 12, 41; Ozaki et al., J. Inflamm. Res. 2015, 8, 15-27; Rabeony et al., Eur. J. Immunol. 2015, 45, 2847). During inflammasome complex assembly, the oligomerization of NLRP3 triggers the nucleation of ASC and an event commonly referred to as “ASC SPECK” formation, as it is identified in the cell as a discrete puncta within the cell after staining and visualization of ASC using common immunocytochemical methods.
The ability of compounds to inhibit NLRP3 inflammasome activation was determined in vitro by monitoring formation of the ASC-SPECK in human monocytic THP-1 cells after stimulation. THP-1 cells (ATCC catalog #TIB-202) were maintained in complete growth media containing Roswell Park Memorial Institute RPMI (ATCC catalog #30-2001), 10% heat inactivated fetal bovine serum, 1× penicillin/streptomycin and 0.05 mM 2-mercaptoethanol. At the start of the assay, undifferentiated THP-1 cells were plated at a density of 20,000 cells per well in a 384-well plate (Poly-D-lysine coated Cell Carrier Ultra microplate, Perkin Elmer catalog #6057500) in complete growth media supplemented with 10 ng/ml phorbol 12-myristate 13-acetate (PMA; Sigma catalog #P8139), and then incubated overnight. The next day, media was replaced with assay media (RPMI (Gibco catalog #11875-093), 0.01% bovine serum albumin (BSA)). Compounds were serially diluted in DMSO and then added to wells one hour prior to the addition of 12.5 μg/ml Gramicidin (Enzo Lifescience, catalog #ALX-350-233-M005). All incubations were carried out at 37° C. (5% CO2/95% air). Following a 3-hour treatment with gramicidin, cells are fixed with 4% paraformaldehyde and stored at 4° C. until immunofluorescence staining.
Immunofluorescence staining: Anti-ASC antibody (MBL catalog #D086-3) was desalted and labeled with Alexa 488 antibody labeling kit (Thermo catalog #A20181) prior to use as described below. After fixation, the following steps were carried out at rt. Cells were first permeabilized with 0.3% polyethylene glycol tert-octylphenyl ether (Triton X-100) in phosphate-buffered saline (PBS) for 15 minutes and then incubated in blocking buffer containing 5% goat serum, 0.3% polyethylene glycol sorbitan monolaurate (Tween-20) and 0.03% sodium azide in PBS for 1 hour. Cells were stained with a mixture of ASC-Alexa 488 antibody (diluted 1:200 in blocking buffer) and nuclear stain DRAQ5 (1:5000 in blocking buffer, Thermo catalog #62251) in blocking buffer for 1 hour. Following a wash with 0.3% polyethylene glycol sorbitan monolaurate (Tween-20) in PBS, plates were imaged with an Opera Phenix High Content Screening System. The number of DRAQ5 positive cells containing ASC SPECKS were quantified in each well.
Data analysis: EC50 values were calculated by standard curve-fitting analysis using an internally developed program in TIBCO Spotfire software.

[1] = inhibition of ASC SPECK formation
[2] = Homo sapiens, THP-1, inhibition of ASC SPECK formation

Q: Which EC50 [1] does the source give for `Cc1cc(C(F)(F)F)cc(O)c1-c1cnc2cn(C3CCc4nnc(C(F)(F)F)n4C3)nc2n1` (single isomer, unassigned) [Example 70, (R or S)-3-methyl-5-(trifluoromethyl)-2-(2-(3-(trifluoromethyl)-5,6,7,8-tetrahydro-[1,2,4]triazolo[4,3-a]pyridin-6-yl)-2H-pyrazolo[3,4-b]pyrazin-6-yl)phenol] here?
A: 12 nM

Q: Which EC50 [1] does the source give for `Cc1cc(C(F)(F)F)cc(O)c1-c1cnc2c(C)n(C3CCC(=O)NC3)nc2n1` (single isomer, unassigned) [Example 109, (S or R)-5-(6-(2-hydroxy-6-methyl-4-(trifluoromethyl)phenyl)-3-methyl-2H-pyrazolo[3,4-b]pyrazin-2-yl)piperidin-2-one] here?
A: 279 nM

Q: Which EC50 [2] does the source give for `Cc1cc(C(F)(F)F)cc(O)c1-c1cnc2cn([C@]3(C)CCS(=O)(=O)C3)nc2n1` [Example 29, 3-methyl-2-[2-[(3R)-3-methyl-1,1-dioxo-thiolan-3-yl]pyrazolo[3,4-b]pyrazin-6-yl]-5-(trifluoromethyl)phenol] here?
A: 232 nM

Q: `Cc1cc(C(F)(F)F)cc(O)c1-c1cnc2cn(C3(C)CC(F)C3)nc2n1` (single isomer, unassigned) [Example 75, 2-(2-((1S,3S or 1R,3R)-3-fluoro-1-methylcyclobutyl)-2H-pyrazolo[3,4-b]pyrazin-6-yl)-3-methyl-5-(trifluoromethyl)phenol] was tested. Which EC50 [1] did it give?
A: 262 nM

Q: For `Cc1cc(C(F)(F)F)cc(O)c1-c1cnc2cn([C@@H]3COC[C@H]3O)nc2n1` [Example 33, (3S,4R)-4-[6-[2-hydroxy-6-methyl-4-(trifluoromethyl)phenyl]pyrazolo[3,4-b]pyrazin-2-yl]tetrahydrofuran-3-ol], which EC50 [2] is on record?
A: 71 nM

Q: Which EC50 [2] does the source give for `Cc1cc(C(F)(F)F)cc(O)c1-c1cnc2cn([C@H]3CCC(=O)N(C)C3)nc2n1` [Example 5, (5S)-5-[6-[2-hydroxy-6-methyl-4-(trifluoromethyl)phenyl]pyrazolo[3,4-b]pyrazin-2-yl]-1-methyl-piperidin-2-one] here?
A: 13 nM

Q: With `Cc1cc(C(F)(F)F)cc(O)c1-c1cnc2cn(C3CCOCC3(F)F)nc2n1` (single isomer, unassigned) [Example 105, (R or S)-2-(2-(3,3-difluorotetrahydro-2H-pyran-4-yl)-2H-pyrazolo[3,4-b]pyrazin-6-yl)-3-methyl-5-(trifluoromethyl)phenol] as the molecule, how does the EC50 [2] read?
A: 433 nM

Q: `CCOCOc1cc(C(F)(F)F)cc(C)c1-c1cnc2c([C@@H](C)O)n(C[C@@H]3CC(=O)N(C4CC4)C3)nc2n1` (single isomer, unassigned) [Example 115, (R or S)-1-cyclopropyl-4-((6-(2-(ethoxymethoxy)-6-methyl-4-(trifluoromethyl)phenyl)-3-((R or S)-1-hydroxyethyl)-2H-pyrazolo[3,4-b]pyrazin-2-yl)methyl)pyrrolidin-2-one] was tested. Which EC50 [2] did it give?
A: 287 nM

Q: How did the EC50 [2] turn out when `COCC12CC(n3cc4ncc(-c5c(C)cc(C(F)(F)F)cc5O)nc4n3)(C1)C2` [Example 37, 2-[2-[3-(methoxymethyl)-1-bicyclo[1.1.1]pentanyl]pyrazolo[3,4-b]pyrazin-6-yl]-3-methyl-5-(trifluoromethyl)phenol] was run?
A: 220 nM

Q: `Cc1cc(C(F)(F)F)cc(O)c1-c1cnc2cn(C3CCOCC34CC4)nc2n1` (single isomer, unassigned) [Example 99, (R or S)-2-(2-(5-oxaspiro[2.5]octan-8-yl)-2H-pyrazolo[3,4-b]pyrazin-6-yl)-3-methyl-5-(trifluoromethyl)phenol] was tested. Which EC50 [1] did it give?
A: 580 nM

Q: For `Cc1cc(C(F)(F)F)cc(O)c1-c1cnc2cn(C3CCOCC3(C)C)nc2n1` (single isomer, unassigned) [Example 98, (S or R)-2-(2-(3,3-dimethyltetrahydro-2H-pyran-4-yl)-2H-pyrazolo[3,4-b]pyrazin-6-yl)-3-methyl-5-(trifluoromethyl)phenol], which EC50 [1] is on record?
A: 237 nM

Q: For `Cc1cc(C(F)(F)F)cc(O)c1-c1cnc2cn(C34COCC3C4)nc2n1` (single isomer, unassigned) [Example 83, 2-(2-((1R,5R or 1S,5S)-3-oxabicyclo[3.1.0]hexan-1-yl)-2H-pyrazolo[3,4-b]pyrazin-6-yl)-3-methyl-5-(trifluoromethyl)phenol], which EC50 [1] is on record?
A: 11 nM

Q: With `Cc1cc(C(F)(F)F)cc(O)c1-c1cnc2cn(C34CCC(O)(CC3)C4)nc2n1` [Example 28, 4-[6-[2-hydroxy-6-methyl-4-(trifluoromethyl)phenyl]pyrazolo[3,4-b]pyrazin-2-yl]norboman-1-ol] as the molecule, how does the EC50 [2] read?
A: 55 nM

Q: `Cc1cc(C(F)(F)F)cc(O)c1-c1cnc2cn([C@H]3CCO[C@@H](C)C3)nc2n1` (single isomer, unassigned) [Example 94, 3-methyl-2-(2-((2R,4R or 2S,4S)-2-methyltetrahydro-2H-pyran-4-yl)-2H-pyrazolo[3,4-b]pyrazin-6-yl)-5-(trifluoromethyl)phenol] was tested. Which EC50 [1] did it give?
A: 92 nM

Q: How did the EC50 [1] turn out when `Cc1cc(C(F)(F)F)cc(O)c1-c1cnc2cn(C3C4CS(=O)(=O)CC43)nc2n1` (single isomer, unassigned) [Example 53, (1R,5S,6S or 1R,5S,6R)-6-(6-(2-hydroxy-6-methyl-4-(trifluoromethyl)phenyl)-2H-pyrazolo[3,4-b]pyrazin-2-yl)-3-thiabicyclo[3.1.0]hexane 3,3-dioxide] was run?
A: 981 nM

Q: `CCc1nnc2n1CC(n1cc3ncc(-c4c(C)cc(C(F)(F)F)cc4O)nc3n1)CC2` (single isomer, unassigned) [Example 73, (S or R)-2-(2-(3-ethyl-5,6,7,8-tetrahydro-[1,2,4]triazolo[4,3-a]pyridin-6-yl)-2H-pyrazolo[3,4-b]pyrazin-6-yl)-3-methyl-5-(trifluoromethyl)phenol] was tested. Which EC50 [1] did it give?
A: 142 nM

Q: Which EC50 [1] does the source give for `Cc1cc(C(F)(F)F)cc(O)c1-c1cnc2cn([C@H]3CCOC[C@H]3F)nc2n1` (single isomer, unassigned) [Example 101, 2-(2-((3S,4S or 3R,4R)-3-fluorotetrahydro-2H-pyran-4-yl)-2H-pyrazolo[3,4-b]pyrazin-6-yl)-3-methyl-5-(trifluoromethyl)phenol] here?
A: 117 nM

Q: With `Cc1cc(C(F)(F)F)cc(O)c1-c1cnc2cn(C3CCCOC34CCC4)nc2n1` (racemic) [Example 22, (S and R)-2-(2-(5-oxaspiro[3.5]nonan-9-yl)-2H-pyrazolo[3,4-b]pyrazin-6-yl)-3-methyl-5-(trifluoromethyl)phenol] as the molecule, how does the EC50 [2] read?
A: 202 nM

Q: For `Cc1cc(C(F)(F)F)cc(O)c1-c1cnc2cn(C34CCOCC3C4)nc2n1` (single isomer, unassigned) [Example 92, 2-(2-((1S,6R or 1R,6S)-3-oxabicyclo[4.1.0]heptan-6-yl)-2H-pyrazolo[3,4-b]pyrazin-6-yl)-3-methyl-5-(trifluoromethyl)phenol], which EC50 [1] is on record?
A: 132 nM

Q: `Cc1cc(C(F)(F)F)cc(O)c1-c1cnc2cn(C3(C)CCOCC3)nc2n1` [Example 51, 3-methyl-2-[2-(4-methyltetrahydropyran-4-yl)pyrazolo[3,4-b]pyrazin-6-yl]-5-(trifluoromethyl)phenol] was tested. Which EC50 [2] did it give?
A: 142 nM

Q: How did the EC50 [2] turn out when `Cc1cc(C(F)(F)F)cc(O)c1-c1cnc2cn(CC(C)(C)C#N)nc2n1` [Example 12, 3-(6-(2-hydroxy-6-methyl-4-(trifluoromethyl)phenyl)-2H-pyrazolo[3,4-b]pyrazin-2-yl)-2,2-dimethylpropanenitrile] was run?
A: 658 nM

Q: `Cc1cc(C(F)(F)F)cc(O)c1-c1cnc2cn([C@H]3CCOC[C@@H]3F)nc2n1` (single isomer, unassigned) [Example 104, 2-(2-((3S,4R or 3R,4S)-3-fluorotetrahydro-2H-pyran-4-yl)-2H-pyrazolo[3,4-b]pyrazin-6-yl)-3-methyl-5-(trifluoromethyl)phenol] was tested. Which EC50 [1] did it give?
A: 291 nM

Q: With `Cc1cc(C(F)(F)F)cc(O)c1-c1cnc2cn(C3CCOC(C)(C)C3)nc2n1` (single isomer, unassigned) [Example 96, (S or R)-2-(2-(2,2-dimethyltetrahydro-2H-pyran-4-yl)-2H-pyrazolo[3,4-b]pyrazin-6-yl)-3-methyl-5-(trifluoromethyl)phenol] as the molecule, how does the EC50 [2] read?
A: 235 nM
